pIC50, pKi: −log10 of the molar value. Counter-ions that a name gives are not always drawn. Like-named read-outs stand apart in the source and are kept apart here. One block for each compound: values may come before it.
Experiments:
mOat3 [1] = molecular target: T1, mOat3 (Mus musculus, UniProt O88909); parameters: method as in PMID 18381565; conditions: CHO-mOat3 cells, determined previously; cited from earlier work
T1 construct: expressed in transfected cells; host or cells: CHO (Chinese hamster ovary), stably transfected (CHO-mOat3)
T1 sequence (O88909 1-537): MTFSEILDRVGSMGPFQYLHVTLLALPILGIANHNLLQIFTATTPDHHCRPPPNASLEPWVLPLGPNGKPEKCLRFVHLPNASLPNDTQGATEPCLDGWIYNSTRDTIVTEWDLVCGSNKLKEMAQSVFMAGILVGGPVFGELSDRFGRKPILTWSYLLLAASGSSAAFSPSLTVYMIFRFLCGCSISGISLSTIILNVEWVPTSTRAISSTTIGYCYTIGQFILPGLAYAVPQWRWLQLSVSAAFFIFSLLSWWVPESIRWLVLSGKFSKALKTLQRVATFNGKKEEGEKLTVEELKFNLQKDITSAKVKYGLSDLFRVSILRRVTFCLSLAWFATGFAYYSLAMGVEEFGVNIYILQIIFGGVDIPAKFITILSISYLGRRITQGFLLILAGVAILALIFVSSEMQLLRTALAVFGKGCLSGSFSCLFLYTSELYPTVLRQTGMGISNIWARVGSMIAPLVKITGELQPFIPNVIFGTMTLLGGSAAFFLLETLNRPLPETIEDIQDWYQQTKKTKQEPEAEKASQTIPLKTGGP

mOat3 [2] = molecular target: T1, mOat3; test: Inhibition of mOat3-mediated [3H]ES uptake in CHO-mOat3 cells (cell accumulation assay); type: cell-based, murine; conditions: for inhibition at 1000 µM: read-out: inhibition of mOat3-mediated ES uptake
Procedure: (§1) Derivation of the stably transfected Chinese hamster ovary (CHO) cell lines expressing mOat1 (CHO-mOat1), mOat3 (CHO-mOat3), and the empty vector (FRT) transfected control cell line (CHO-FRT) was described previously.
(§2) Cell transport assay procedures were adapted from those previously published. In brief, 2 × 10^5 cells/well were seeded in 24-well tissue culture plates and grown in the absence of antibiotics for 48 hr. On the day of the experiment, cells were equilibrated with transport buffer for 10 min (500 μL of Hanks' balanced salt solution containing 10 mM HEPES, pH 7.4). […] After incubation, cells were immediately rinsed three times with ice-cold transport buffer, lysed, and analyzed via liquid scintillation counting. Uptake values were normalized to corresponding total protein content in cell lysates as determined by the Bradford method. Substrate accumulation is reported as picomoles of substrate per milligram protein. […] Kinetic calculations were performed using GraphPad Prism Software version 5.0 (GraphPad Software Inc., San Diego, CA, USA). Michaelis constant (K m) values were calculated by nonlinear regression using the Michaelis-Menten model. Mode of inhibition was identified by using mixed model inhibition analysis as follows: (1) Vmax Apparent =Vmax/(1+[I]/(α×Ki)),Km Apparent=Km1+[I]/Ki/(1+[I]/(α×Ki)),Y=Vmax Apparent×x/Km Apparent+x, where V max, K i, and I represent the maximum transport velocity without inhibitor, the inhibition constant generated from the data set under analysis, and the concentration of inhibitor, respectively. In this study, three curves were constructed (no inhibitor, plus two selected inhibitor concentrations) with uptake of substrate plotted as a function of its concentration for each condition. […] The parameter, α, can then be used to determine the mode of inhibition. When α is very large (α > 1), it indicates competitive inhibition. Otherwise, it indicates noncompetitive inhibition (α = 1) or uncompetitive inhibition (0 < α < 1). To estimate K i values, IC50 values were calculated using nonlinear regression and inserted into the Cheng-Prusoff equation: K i = IC50/(1 + [Substrate]/K m). Results were confirmed by repeating all experiments at least three times with triplicate wells for each data point in every experiment.
Figure 2 Inhibition profile of mOat1 and mOat3. […] (5 μM) by LSA, PCA, RMA, SAA, SAB, TSL, and probenecid (1000 μM) was measured in the CHO-mOat1 cells (10 min). […] (b) Inhibition of mOat3-mediated uptake of [^3H]ES (1 μM) by LSA, PCA, RMA, SAA, SAB, TSL, and probenecid (1000 μM) was measured in the CHO-mOat3 cells (10 min). […] Values are mean ± S.D. of triplicate values. ***denotes P < 0.001 as determined by one-way ANOVA followed by Dunnett's t-test.
Figure 5 K i determination for LSA, RMA, and SAA in the CHO-mOat3 cell line. One minute uptake of [^3H]ES (1 μM) in CHO-mOat3 cells was measured in the presence of increasing concentrations (10^−7 to 4 × 10^−4 M) of LSA, RMA, and SAA. Data were corrected for nonspecific background measured in the CHO-FRT cells prior to kinetic analysis. K i values were determined with non-linear regression and the “one-site competition” model using GraphPad Prism software. Graphs shown are from representative experiments with values plotted as mean ± S.D. (n = 3).

mOat1 [3] = molecular target: T2, mOat1 (Mus musculus, UniProt Q8VC69); test: Inhibition of mOat1-mediated [3H]PAH uptake in CHO-mOat1 cells (cell accumulation assay); type: cell-based, murine; conditions: read-out: inhibition of mOat1-mediated PAH uptake
T2 construct: expressed in transfected cells; host or cells: CHO (Chinese hamster ovary), stably transfected (CHO-mOat1)
T2 sequence (Q8VC69 1-545): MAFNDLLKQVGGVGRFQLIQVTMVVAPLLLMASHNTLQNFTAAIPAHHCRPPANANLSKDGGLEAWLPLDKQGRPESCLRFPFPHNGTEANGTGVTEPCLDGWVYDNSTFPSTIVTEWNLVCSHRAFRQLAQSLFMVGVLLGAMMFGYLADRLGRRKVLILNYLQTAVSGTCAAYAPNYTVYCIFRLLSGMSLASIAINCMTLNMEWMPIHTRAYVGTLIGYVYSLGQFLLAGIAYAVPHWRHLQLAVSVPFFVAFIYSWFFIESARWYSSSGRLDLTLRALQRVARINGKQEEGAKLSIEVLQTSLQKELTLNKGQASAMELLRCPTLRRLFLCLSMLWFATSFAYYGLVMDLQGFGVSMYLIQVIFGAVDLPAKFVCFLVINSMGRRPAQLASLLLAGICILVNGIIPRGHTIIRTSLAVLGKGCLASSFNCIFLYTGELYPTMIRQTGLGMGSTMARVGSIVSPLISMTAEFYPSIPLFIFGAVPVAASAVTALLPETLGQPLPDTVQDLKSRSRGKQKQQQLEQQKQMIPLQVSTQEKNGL
Procedure: as §1
as §2, with “Mode of inhibition was identified by using mixed model inhibition analysis as follows: (1) Vmax Apparent =Vmax/(1+[I]/(α×Ki)),Km Apparent=Km1+[I]/Ki/(1+[I]/(α×Ki)),Y=Vmax Apparent×x/Km Apparent+x, where V max, K i, and I represent the maximum transport velocity without inhibitor, the inhibition constant generated from the data set under analysis, and the concentration of inhibitor, respectively.” left out, “Otherwise, it indicates noncompetitive inhibition (α = 1) or uncompetitive inhibition (0 < α < 1). To estimate K i values, IC50 values were calculated using nonlinear regression and inserted into the Cheng-Prusoff equation: K i = IC50/(1 + [Substrate]/K m).” left out
Figure 3 Michaelis-Menten kinetics of PAH transport in CHO-mOat1 cells. In order to calculate K i values for mOat1, the K m value for PAH needed to be determined in the CHO-mOat1 cell system. […] The corrected curve (closed circles) was obtained by subtracting the nonspecific background uptake as measured in the CHO-FRT cells from CHO-mOat1 accumulation to allow analysis of mOat1-mediated activity. Experiments were repeated three times in triplicate, and Michaelis constant (K m) values were calculated by nonlinear regression using the Michaelis-Menten model. […] Graph shown is from a representative experiment with values plotted as mean ± S.D. (n = 3).
Figure 2 Inhibition profile of mOat1 and mOat3. […] (b) Inhibition of mOat3-mediated uptake of [^3H]ES (1 μM) by LSA, PCA, RMA, SAA, SAB, TSL, and probenecid (1000 μM) was measured in the CHO-mOat3 cells (10 min). […] Values are mean ± S.D. of triplicate values. ***denotes P < 0.001 as determined by one-way ANOVA followed by Dunnett's t-test.
Figure 4 K i determination for LSA, RMA, and SAA in the CHO-mOat1 cell line. […] (5 μM) in CHO-mOat1 cells was measured in the presence of increasing concentrations (10^−7 to 5 × 10^−4 M) of LSA, RMA, and SAA. Data were corrected for nonspecific background measured in the CHO-FRT cells prior to kinetic analysis. K i values were determined with non-linear regression and the “one-site competition” model using GraphPad Prism software. Graphs shown are from representative experiments with values plotted as mean ± S.D. (n = 3).

mOat1 [4] = molecular target: T2, mOat1; parameters: method as in PMID 21546538; conditions: cited from earlier work
mOat3 [5] = molecular target: T1, mOat3; parameters: method as in PMID 21546538; conditions: cited from earlier work
hOAT1 = test system: hOAT1; parameters: method as in PMID 15870380; conditions: cited from earlier work
mOat3 [6] = molecular target: T1, mOat3; parameters: method as in PMID 19953504, PMID 17553798, PMID 18973812; conditions: read-out: K i for mOat3; cited from earlier work
[7] = rats; cited from earlier work
[8] = 1 mM (1000 μM) inhibitor, 1 μM [3H]ES, 10 min, CHO-mOat3 cells

Compound: C[C@]12CC[C@@H]3c4ccc(OS(=O)(=O)O)cc4CC[C@H]3[C@@H]1CCC2=O [ES, estrone sulfate]
- K m of ES on mOat3 (mOat3 [1]): 12.2 ± 4.8 µM

Compound: O=C(O)c1ccc(O)c(O)c1 [PCA, protocatechuic acid]
- inhibition at 1000 µM (mOat3 [2]): > 91%
- inhibition at 1000 µM (mOat1 [3]): > 95%

Compound: COc1cccc2c1cc([N+](=O)[O-])c1c(C(=O)O)cc3c(c12)OCO3 [aristolochic acid]
- K m as substrate for mOat1 (mOat1 [4]): 0.79 µM
- K m as substrate for mOat3 (mOat3 [5]): 0.514 µM

Compound: O=c1oc2c(O)c(O)cc3c(=O)oc4c(O)c(O)cc1c4c23 [ellagic acid]
- pIC50 (hOAT1): 6.68

- inhibition at 1000 µM (mOat3 [2]; [8]): > 91%
Compound: CCCN(CCC)S(=O)(=O)c1ccc(C(=O)O)cc1 [probenecid, reference compound]
- pKi (mOat3 [6]): 5.34

Compound: salvianolic acid B [SAB]
- inhibition of mOat3-mediated ES uptake (mOat3 [2]; [8]): approximately 53%
- increase of AUC on spiking additional SAA into Danshen preparations [7]: 82.4%
- reduction of clearance on spiking additional SAA into Danshen preparations [7]: 46.8%

— article PMC3403540, “Active Hydrophilic Components of the Medicinal Herb Salvia miltiorrhiza (Danshen) Potently Inhibit Organic Anion Transporters 1 (Slc22a6) and 3 (Slc22a8)” (Evidence-based Complementary and Alternative Medicine : eCAM, 2012)
